Measured values: patent US6410581B1, “Disubstituted biphenyloxazolines” (Bayer Aktiengesellschaft, priority 1997, dated 2002)

Key:
[1] = tested on: larvae of the mustard beetle (Phaedon cochleariae); assay: Phaedon larvae test; format: in vivo; conditions: after 7 days
Experimental: (§1) Solvent: 7 parts by weight of dimethylformamide
(§2) Emulsifier: 1 part by weight of alkylaryl polyglycol ether
To produce a suitable preparation of active compound, 1 part of weight of active compound is mixed with the stated amount of solvent and the stated amount of emulsifier, and the concentrate is diluted with water to the desired concentration.
After the desired period of time, the kill in % is determined. 100% means that all the beetle larvae have been killed; 0% means that none of the beetle larvae have been killed.

[2] = log p, n-octanol/water partition coefficient by reverse phase HPLC (H2O/CH3CN); format: physicochemical; conditions: pH 7.5
[3] = tested on: caterpillars of the owlet moth (Spodoptera frugiperda); assay: Spodoptera test; format: in vivo; conditions: active compound concentration 0.1%, after 7 days
Experimental: as §1, §2
(§3) To produce a suitable preparation of active compound, 1 part by weight of active compound is mixed with the stated amount of solvent and the stated amount of emulsifier, and the concentrate is diluted with water to the desired concentration.
Cabbage leaves (Brassica oleracea) are treated by being dipped into the active compound preparation of the desired concentration and populated with caterpillars of the owlet moth (Spodoptera frugiperda) while the leaves are still moist.
(§4) After the desired period of time, the kill in % is determined. 100% means that all the caterpillars have been killed; 0% means that none of the caterpillars have been killed.

[4] = tested on: green rice leaf hoppers (Nephotettix cincticeps); assay: Nephotettix test; format: in vivo; conditions: active compound concentration 1%, after 6 days
Experimental: as §1, §2, §3
Rice seedlings (Oryza sativa) are treated by being dipped into the active compound preparation of the desired concentration and populated with green rice leaf hoppers (Nephotettix cincticeps) while the seedlings are still moist.
After the desired period of time, the kill in % is determined. 100% means that all the leaf hoppers have been killed; 0% means that none of the leaf hoppers have been killed.

[5] = tested on: greenhouse red spider mite (Tetranychus urticae); assay: Tetranychus test (OP resistant/dip treatment); format: in vivo; conditions: active compound concentration 0.01%, after 7 days
Experimental: Tetranychus Test (OP Resistant/Dip Treatment)
Solvent: 3 parts by weight of dimethylformamide
as §2
To produce a suitable preparation of active compound, 1 part by weight of active compound is mixed with the stated amount of solvent and the stated amount of emulsifier, and the concentrate is diluted to the desired concentration using emulsifier-containing water.
Bean plants (Phaseolus vulgaris) which are heavily infested by all stages of the greenhouse red spider mite (Tetranychus urticae) are dipped into an active compound preparation of the desired concentration.
After the desired period of time, the kill in % is determined. 100% means that all the spider mites have been killed; 0% means that none of the spider mites have been killed.

[6] = tested on: caterpillars of the army worm (Spodoptera exigua); assay: Spodoptera exigua test; format: in vivo; conditions: active compound concentration 0.1%, after 6 days
Experimental: as §1, §2, §3
Cabbage leaves (Brassica oleracea) are treated by being dipped into the active compound preparation of the desired concentration and populated with caterpillars of the army worm (Spodoptera exigua) while the leaves are still moist.
After the desired period of time, the activity in % is determined. 100% means that all the caterpillars have been killed; 0% means that none of the caterpillars have been killed.

[7] = tested on: caterpillars of the cotton bollworm (Heliothis armigera); assay: Heliothis armigera test; format: in vivo; conditions: active compound concentration 0.1%, in 6 days
Experimental: as §1, §2
To produce a suitable preparation of active compound, 1 part by weight of active compound is mixed with the stated amounts of solvent and emulsifier, and the concentrate is diluted with water to the desired concentration.
Soya bean shoots (Glycine max) are treated by being dipped into the active compound preparation of the desired concentration and populated with caterpillars of the cotton bollworm (Heliothis armigera) while the leaves are still moist.
as §4

[8] = tested on: caterpillars of the diamond back moth (Plutella xylostella); assay: Plutella test; format: in vivo; conditions: active compound concentration 0.1%, after 6 days
Experimental: as §1, §2, §3
Cabbage leaves (Brassica oleracea) are treated by being dipped into the active compound preparation of the desired concentration and populated with caterpillars of the diamond back moth (Plutella xylostella) while the leaves are still moist.
as §4

[9] = tested on: All larval stages of Lucilia cuprina (OP resistant); assay: Test with fly larvae/development-inhibitory activity; format: in vivo; conditions: concentration 100 ppm
Experimental: Test with Fly Larvae/development-inhibitory Activity
Test animals: All larval stages of Lucilia cuprina (OP resistant) [pupae and adults (without contact with the active compound)]
35 parts by weight of ethylene glycol monomethyl ether
35 parts by weight of nonylphenol polyglycol ether
To prepare a suitable formulation, 3 parts by weight of active compound are mixed with 7 parts of the abovementioned solvent-emulsifier mixture, and the resulting emulsion concentrate is diluted with water to the concentration desired in each case.
For each concentration, 30 to 50 larvae are transferred to horse meat (1 cm^3) located in glass tubes, and 500 μl of the test dilution are pipetted onto the meat. The glass tubes are placed into plastic beakers whose bottom is covered with sea sand and kept in a controlled-environment cabinet (26° C. ±1.5° C., 70% ±10% relative humidity). Larvicidal activity is checked after 24 hours and 48 hours. After the larvae have left (about 72 h), the glass tubes are removed and perforated plastic lids are placed on the beakers. After 1½ times the development period (hatching of the control flies), the hatched flies and the pupae/puparia are counted.
The criterion for the activity is the death of the treated larvae after 48 h (larvicidal effect), or inhibition of adults hatching from the pupae or inhibition of pupation. […]

[10] = active compound concentration 0.01%
[11] = active compound concentration 0.1%

For `CC(C)Oc1ccc(-c2ccc(C3COC(c4ccccc4Cl)=N3)cc2)cc1Cl` (stereo not shown) [Example I-30], the kill in % [1, 10] was 100% and the log p [2] was “log p (pH 7.5): 5.37”.
Compound `C=CCOc1c(Cl)cc(-c2ccc(C3COC(c4c(F)cccc4F)=N3)cc2)cc1Cl` (stereo not shown) [Example I-344] has a kill in % [1, 11] of 100%, a kill in % [3] of 100% and a kill in % [4] of 100%. The kill in % [5] was 100%.
For `CC(C)Oc1c(Cl)cc(-c2ccc(C3COC(c4c(F)cccc4F)=N3)cc2)cc1Cl` (stereo not shown) [Example I-342, 2-(2,6-Difluorophenyl)-4-(4-(4-(propyl-2-oxy)-3,5-dichlorophenyl)phenyl)-4,5-dihydro-oxazoline], the kill in % [6] was 100%, the kill in % [7] was 100% and the kill in % [8] was 100%. For the same compound, the kill in % [1, 11] was 100%, the log p [2] was 5.65 and the kill in % [3] was 100%. It also gave a kill in % [5] of 100%.
With `CC(C)Oc1ccc(-c2ccc(C3COC(c4c(F)cccc4F)=N3)cc2)cc1Cl` (stereo not shown) [Example I-19] the development-inhibitory activity [9] was 100%, the kill in % [1, 10] was 100% and the log p [2] was “log p (pH 7.5): 4.96”.
For `CC(C)(C)c1ccc(COc2ccc(-c3ccc(C4COC(c5c(F)cccc5F)=N4)cc3)cc2Cl)cc1` (stereo not shown) [Example I-22], the development-inhibitory activity [9] was 100%.
In the case of `C=CCc1cc(-c2ccc(C3COC(c4c(F)cccc4Cl)=N3)cc2)ccc1OCC(C)C` (stereo not shown) [Example I-178], the log p [2] is reported as “log p: 6.47”.
Compound `CCCc1cc(-c2ccc(C3COC(c4c(F)cccc4F)=N3)cc2)ccc1O` (stereo not shown) [II-1, 2-(2,6-Difluorophenyl)-4-(4-(4-hydroxy-3-n-propylphenyl)phenyl)-2-oxazoline] has a chromatographic logP ([2]; n-octanol/water) of 3.77.
For `Cc1cc(-c2ccc(C3COC(c4ccccc4F)=N3)cc2)ccc1OC(C)C` (stereo not shown) [Example I-190], the log p [2] was “log p: 5.23”.
With `CCC(C)Oc1ccc(-c2ccc(C3COC(c4c(F)cccc4F)=N3)cc2)cc1C` (stereo not shown) [Example I-7] the log p [2] was “log p*: 5.60 (pH = 7.5)”.
In the case of `CCCCCCOc1ccc(-c2ccc(C3COC(c4c(F)cccc4Cl)=N3)cc2)cc1Cl` (stereo not shown) [Example I-83], the log p [2] is reported as “log p: 6.68 (pH 7.5)”.
Compound `CCCc1cc(-c2ccc(C3COC(c4c(F)cccc4F)=N3)cc2)ccc1OC(C)C` (stereo not shown) [Example I-2, 2-(2,6-Difluorophenyl)-4-(4-(4-propyl-2-oxy)-3-n-propylphenyl)phenyl-2-oxazoline] has a melting point of 60 to 62 °C and a kill in % [1, 10] of 100%.
With `Cc1cc(-c2ccc(C3COC(c4c(F)cccc4F)=N3)cc2)cc(C)c1OC(C)C` (stereo not shown) [Example I-44] the log p [2] was “log p: 5.23 (pH 7.5)”.
With `CC(C)COc1ccc(-c2ccc(C3COC(c4ccccc4F)=N3)cc2)cc1Cl` (stereo not shown) [Example I-217] the log p [2] was “log p: 5.70”.
In the case of `CCCc1cc(-c2ccc(C3COC(c4ccccc4C)=N3)cc2)ccc1OC(C)CC` (stereo not shown) [Example I-9], the log p [2] is reported as “log p: 7.28 (pH = 7.5)”.
In the case of `C=CCc1cc(-c2ccc(C3COC(c4ccccc4Br)=N3)cc2)cc(Cl)c1O` (stereo not shown) [II-21], the log p [2] is reported as “log p: 4.42”.
For `Cc1cc(-c2ccc(C3COC(c4ccccc4Br)=N3)cc2)ccc1OC(C)C` (stereo not shown) [Example I-14], the log p [2] was “log p: 5.63 (pH = 7.5)”.
For `C#CCOc1c(Cl)cc(-c2ccc(C3COC(c4ccccc4Br)=N3)cc2)cc1CC=C` (stereo not shown) [Example I-284], the log p [2] was “log p: 5.37”.
In the case of `CCC(C)Oc1ccc(-c2ccc(C3COC(c4ccccc4Br)=N3)cc2)cc1C` (stereo not shown) [Example I-16], the log p [2] is reported as “log p: 6.12 (pH = 7.5)”.
